Results published in patent publication US7160733B2, “Ligand specific to β2-glycoprotein I and use thereof” (priority 2001, dated 2007).

Columns and labels:
β2-GPI [1] = target: T1, β2-GPI (Homo sapiens, UniProt P02749); test: ELISA on solid-phase lipid (ligand)-coated plate: β2-GPI binding detected with Cof-22; settings: for β2-GPI binding (Cof-22 binding), No treatment: absorbance at 490 nm, mean ± SD (n = 3), solid-phase ligand not methylated; for β2-GPI binding to lipid: result in words (discussion)
T1 construct: β2-GPI was purified from normal human plasma as described in [35] with slight modification; from tissue; host or cells: pooled normal human plasma from healthy subjects
T1 sequence (P02749 20-345): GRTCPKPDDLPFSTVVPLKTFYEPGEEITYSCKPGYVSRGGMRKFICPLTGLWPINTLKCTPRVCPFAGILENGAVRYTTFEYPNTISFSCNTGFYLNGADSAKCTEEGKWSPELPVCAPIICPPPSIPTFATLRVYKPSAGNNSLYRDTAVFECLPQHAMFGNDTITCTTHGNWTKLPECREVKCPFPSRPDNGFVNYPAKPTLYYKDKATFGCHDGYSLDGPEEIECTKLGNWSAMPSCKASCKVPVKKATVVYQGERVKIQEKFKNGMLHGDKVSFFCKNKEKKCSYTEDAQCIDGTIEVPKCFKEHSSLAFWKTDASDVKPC
Method: (§1) Binding to extracted lipids: A microtiter plate (Immulon 1B, Dynex Technologies Inc.) was coated with lipids extracted from LDLs (50 μg/mL, 50 μL/well) by ethanol evaporation. The wells were blocked with PBS containing 1% BSA for one hour and the wells were incubated with 30 μg/mL of β2-GPI for one hour. Then, β2-GPI binding was detected using Cof-22 and HRP-labeled anti-mouse IgG antibodies. Alternatively, an anti-β2-GPI autoantibody (Cof-22, WB-CAL-1, or EY2C9) was diluted with a 0.3% BSA-containing PBS, and the diluted antibody was added to the coated plate (1.0 μg/mL, 100 μL/well) and incubated with β2-GPI (15 μg/mL) for one hour. The binding of the antibody was detected by an HRP-labeled anti-mouse IgG /or an anti-human IgM. The color was developed with H2O2 and o-phenylenediamine, and OD was measured at 490 nm. Between these steps, extensive washing were done using PBS containing 0.05% Tween 20.
(§2) Synthesized oxLig-1 (50 μg/mL, 50 μL/well) was adsorbed by evaporation on a polystyrene plate (Immulon 1B; Dynex Technologies Inc.), and the plate was then blocked with 1% BSA. Serum samples (diluted 1:100 with PBS containing 0.3% BSA) were incubated in the wells with β2-GPI (15 μg/mL) or other proteins for one hour at room temperature. Antibody binding was detected with HRP-labeled anti-human IgG. Further steps were performed through a method as described in “anti-β2-GPI ELISA.”
(§3) CL (50 μg/mL, 50 μL/well) was adsorbed on a polystyrene plate (Immulon 1B), and further steps were performed through a method as described in “ELISA for antibodies against a protein-oxLig-1 complex.”

WB-CAL-1 = test: ELISA on solid-phase lipid (ligand)-coated plate: WB-CAL-1 binding in presence of β2-GPI; set-up: species or system mouse; settings: for WB-CAL-1 binding, No treatment: absorbance at 490 nm, mean ± SD (n = 3), solid-phase ligand not methylated
Method: as §1, §2, §3

EY2C9 = test: ELISA on solid-phase lipid (ligand)-coated plate: EY2C9 binding in presence of β2-GPI; set-up: species or system human; settings: for EY2C9 binding, No treatment: absorbance at 490 nm, mean ± SD (n = 3), solid-phase ligand not methylated
Method: as §1, §2, §3

APS-1 = test: ELISA on solid-phase lipid-coated plate: binding of antibodies of APS patient serum APS-1; set-up: species or system human; settings: Absorbance, mean ± SD, n = 3
Method: (§4) To eliminate endogenous β2-GPI in some experiments, serum samples were passed through a heparin-Sepharose column. The effluent was dialyzed against PBS and was used for ELISAs.
as §2, §3

APS-2 = test: ELISA on solid-phase lipid-coated plate: binding of antibodies of APS patient serum APS-2; set-up: species or system human; settings: Absorbance, mean ± SD, n = 3
Method: as §4, §2, §3

anti-β2-GPI antibodies = test: ELISA of the anti-β2-GPI antibodies by use of a ligand-coated plate (results in words); assay type: binding; settings: ligand-coated plate, result in words
Method: as §1, §2

J774A.1 cells = test: Liposome binding to macrophages (3H-labeled liposomes, 4° C.); assay type: cell-based, murine; settings: result in words
Method: FIG. 10. Effect of phosphatidylserine (PS) or oxLig-1 content on the binding of liposomes to macrophages. A monolayer of J774.A1 cells was incubated for 2 hours at 4° C. with Celgrosser-P medium containing ^3H-labeled liposomes (50 nmol lipid/well). Open circle represents PS-liposomes; closed circle represents PS-Chol-liposomes; open square represents oxLig-1-liposomes; and closed square represents oxLig-1-Chol-liposomes. Data are indicated as the mean± SD of triplicate samples.
FIG. 11. β2-GPI and anti-β2-GPI monoclonal antibody-dependent binding of ligand-containing liposomes to macrophage. A monolayer of J774.A1 cells was incubated for 2 hours at 4° C. with Celgrosser-P medium containing ^3H-labeled liposomes (50 nmol lipid/well) and WB-CAL-1, in the presence or absence of β2-GPI (200 μg/ml). • A: Binding of PS-liposomes (PS: 50 mol %,) to J774.A1. cells in the presence (closed square) or absence (open square) of β2-GPI (200 μg/ml) • B: Binding of oxLig-1-liposomes (oxLig-1: 40 mol %) to J774.A1 cells in the presence (black bar) or absence (white bar) of β2-GPI (200 μg/ml). • C: A monolayer of J774.A1 cells was incubated for 2 hours at 4° C. with Celgrosser-P medium containing ^3H-labeled synthesized oxLig-1-liposomes (50 nmol lipid/well) and WB-CAL-1, in the presence or absence of β2-GPI (200 μg/ml). Binding of synthesized oxLig-1-liposomes in the absence of β2-GPI and WB-CAL-1 (open circle), binding of synthesized oxLig-1-liposomes in the presence of β2-GPI (open square), binding of synthesized oxLig-1-liposomes in the presence of WB-CAL-1 (closed square), and binding of synthesized oxLig-1-liposomes in the presence of both β2-GPI and WB-CAL-1 (closed circle). Data are indicated as the mean ± SD of triplicate samples.
A monolayer of J774.A1 cells was incubated for 2 hours at 4° C. with Celgrosser-P medium containing [^3H]-labeled liposomes (containing a predetermined ligand, 50 nmol lipid/well). DPPS-containing liposomes (open squares), oxLig-1-containing liposomes (closed squares), oxLig-2-containing liposomes (closed circles), and 13-COOH-7KC-containing liposomes (closed triangles). Data are indicated as mean± SD of triplicate samples.
A monolayer of J774.A1 cells was incubated for 2 hours at 4° C. with Celgrosser-P medium containing [^3H]-labeled liposomes (containing a predetermined ligand (30 mmol %), 50 nmol lipid/well) and in the presence (black bars) or absence (white bars) of β2-GPI (200 μg/mL) and WB-CAL-1 ([…]).
A monolayer culture of murine macrophage-like cells (J774A.1) obtained from Riken Cell Bank (Tsukuba) was maintained in RPMI 1640 medium supplemented with 10% fetal carf serum (FCS). For binding experiments, the cells (8×10^5 cells/mL, RPMI1640) were dispensed in an amount of 1 mL/well into a 12-well culture plate (Sumitomo Bakelite Co., Ltd.) and were incubated for 24 hours at 37° C., then the culture broth was replaced with Celgrosser-P medium (Sumitomo Pharmaceutical Co.). After one hour of preincubation at 37° C., 50 μL of liposomes (50 nmol lipid/well) with or without β2-GPI (200 μg/mL) and WB-CAL-1 (100 μg/mL) were added to each culture, and the cells were incubated at 4° C. and/or 37° C. The wells were next washed with chilled PBS, and the cells were lysed by adding 1 mL of 0.1N NaOH. An aliquot was taken for determination of cellular proteins and of radioactivity associated with the cells. Protein concentration was determined in a manner as described above.

β2-GPI [2] = test: ELISA on solid-phase lipid (ligand)-coated plate: β2-GPI binding detected with Cof-22; set-up: species or system human; settings: Experiment 2; Absorbance, mean ± SD, n = 3; synthesized oxLig-1-solidified plate, added protein 15 μg/mL
Method: as §1, §2, §3

[3] = Experiment 1, Absorbance, mean ± SD, n = 3, solid-phase lipid, β2-GPI 15 μg/mL
[4] = Experiment 1, solid-phase lipid, β2-GPI 15 μg/mL, serum with β2-GPI removed
[5] = Experiment 2, Absorbance, mean ± SD, n = 3, synthesized oxLig-1-solidified plate, added protein 15 μg/mL
[6] = Experiment 2, synthesized oxLig-1-solidified plate, added protein 15 μg/mL

CCCCC/C=C\C/C=C\C/C=C\C/C=C\CCCC(=O)O[C@H](COC(=O)CCCCCCCCCCCCCCC)COP(=O)([O-])OCC[N+](C)(C)C [PAPC, 1-Palmitoyl-2-arachidonoyl-phosphatidylcholine, reference compound]
Binding of β2-GPI-dependent aCL, Cof-22 (β2-GPI [1]; [3]): 0.019 ± 0.003 | Binding of β2-GPI-dependent aCL, WB-CAL-1 (WB-CAL-1; [3]): 0.012 ± 0.001 | Binding of β2-GPI-dependent aCL, EY2C9 (EY2C9; [3]): 0.011 ± 0.003 | Binding of β2-GPI-dependent aCL, APS-1 (APS-1; [4]): 0.000 ± 0.001 | Binding of β2-GPI-dependent aCL, APS-2 (APS-2; [4]): 0.010 ± 0.002

CCCCC/C=C\C/C=C\CCCCCCCC(=O)O[C@H]1CC[C@@]2(C)C(=CC[C@H]3[C@@H]4CC[C@H]([C@H](C)CCCC(C)C)[C@@]4(C)CC[C@@H]32)C1 [Cholesteryl linoleate, reference compound]
β2-GPI binding (Cof-22 binding), No treatment (β2-GPI [1]): 0.061 +/− 0.005 | β2-GPI binding to lipid (β2-GPI [1]): did not bind | WB-CAL-1 binding, No treatment (WB-CAL-1): 0.056 +/− 0.002 | EY2C9 binding, No treatment (EY2C9): 0.074 +/− 0.012 | binding of the anti-β2-GPI autoantibodies (WB-CAL-1 and EY2C9) to solid-phase ligand (anti-β2-GPI antibodies): no such binding was observed

CC(C)CCC[C@@H](C)[C@H]1CC[C@H]2[C@@H]3C(=O)C=C4C[C@@H](OC(=O)CCCCCCCCCCCC(=O)O)CC[C@]4(C)[C@H]3CC[C@]12C [13-COOH-7KC, 13-oxo-13-(7-ketocholest-5-en-3β-yloxy)tridecanoic acid]
β2-GPI binding (Cof-22 binding), No treatment (β2-GPI [1]): 1.303 +/− 0.049 | β2-GPI binding to lipid (β2-GPI [1]): significant bonding | WB-CAL-1 binding, No treatment (WB-CAL-1): 0.336 +/− 0.027 | EY2C9 binding, No treatment (EY2C9): 1.062 +/− 0.040 | binding of the anti-β2-GPI autoantibodies (WB-CAL-1 and EY2C9) to solid-phase ligand (anti-β2-GPI antibodies): significant binding | direct binding of liposomes to macrophages (J774A.1 cells; J774A.1 cells, 2 hours at 4° C., 50 nmol lipid/well, without β2-GPI and antibody): relatively low or negligible small | binding of liposomes to macrophages after methylation of the ligand (J774A.1 cells; liposomes containing methylated ligand, with β2-GPI and WB-CAL-1, FIGS. 20C and 20D): substantially no binding | uptake of ligand-containing liposomes to J774A.1 cells in the presence of both β2-GPI and WB-CAL-1 (J774A.1 cells; liposomes containing the ligand, compared with cholesteryl linoleate-liposomes (control), FIG. 20): significantly enhanced

B1: β2-GPI: β2-Glycoprotein I purified from normal human plasma (protein, UniProt P02749 20-345, looked up)
Beta-2-glycoprotein 1: GRTCPKPDDLPFSTVVPLKTFYEPGEEITYSCKPGYVSRGGMRKFICPLTGLWPINTLKCTPRVCPFAGILENGAVRYTTFEYPNTISFSCNTGFYLNGADSAKCTEEGKWSPELPVCAPIICPPPSIPTFATLRVYKPSAGNNSLYRDTAVFECLPQHAMFGNDTITCTTHGNWTKLPECREVKCPFPSRPDNGFVNYPAKPTLYYKDKATFGCHDGYSLDGPEEIECTKLGNWSAMPSCKASCKVPVKKATVVYQGERVKIQEKFKNGMLHGDKVSFFCKNKEKKCSYTEDAQCIDGTIEVPKCFKEHSSLAFWKTDASDVKPC
Binding of protein-dependent oxLig-1 antibody, Cof-22 (β2-GPI [2]): 1.007 ± 0.031 | Binding of protein-dependent oxLig-1 antibody, WB-CAL-1 (WB-CAL-1; [5]): 0.812 ± 0.023 | Binding of protein-dependent oxLig-1 antibody, EY2C9 (EY2C9; [5]): 1.147 ± 0.028 | Binding of protein-dependent oxLig-1 antibody, APS-1 (APS-1; [6]): 1.043 ± 0.054 | Binding of protein-dependent oxLig-1 antibody, APS-2 (APS-2; [6]): 0.755 ± 0.024
